# Measured values: patent US20200038416A1, “METHODS OF TREATING CARDIAC CONDUCTION DEFECTS USING AMINOSTEROL COMPOSITIONS” (Enterin, Inc., priority 2018, published 2020)
# Entries after “also recorded” stand apart in the source; their conditions may differ.
# How the values were obtained:
# [1] = system: patients with PD and constipation; assay: Phase 2 trial safety and adverse event profile (Stages 1 and 2); type: in vivo, human
# Protocol: Tolerability limits included diarrhea or vomiting.
# (§1) In Stage 2, 34 patients were evaluated.
# [2] = parameters: species or system rats; settings: rat, in vivo, po
# [3] = system: patients with PD and constipation; assay: Phase 2 trial Stage 2: bowel function / stool related indices on daily oral dosing; type: in vivo, human; settings: for CSBM/week in the randomized cohort, Treatment (n = 6): baseline 0.8
# Protocol: Following successful screening, all subjects underwent a 14-day run-in period where the degree of constipation was assessed through a validated daily log (Zinsmeister et al. 2013) establishing baseline CSBMs/week. Subjects with an average of <3 CSBMs/week proceeded to dosing.
# as §1
# The primary efficacy outcome variable was whether or not a subject was a “success” or “failure”. This is an endpoint based on subject diary entries for the “fixed dose” period prior to the endpoint assessment defined as average complete stool frequency increase by 1 or more over baseline, or 3 or more complete spontaneous stools/week. The subject was deemed a “success” if s/he met one or more of the criteria listed above, otherwise the subject was deemed a “failure”. The primary analysis was based on all subjects with a baseline assessment and an assessment at the end of the “fixed-dose” period and was a comparison of the proportion of successes with 0.10 (the null hypothesis corresponding to no treatment effect).
# patients with PD = assay: Circadian rhythm of wrist skin temperature; type: in vivo, human; settings: 12 evaluable patients; for markers of circadian function (IS, RA, CFI, IV) of wrist skin temperature: fixed dose versus baseline
# Protocol: (6) I-Button Temperature Assessment. The I-Button is a small, rugged self-sufficient system that measures temperature and records the results in a protected memory section. The Thermochron I-Button DS1921H (Maxim Integrated, Dallas, Tex.) was used for skin temperature measurement. I-Buttons were programmed to sample every 10 mins., and attached to a double-sided cotton sport wrist band using Velcro, with the sensor face of the I-Button placed over the inside of the wrist, on the radial artery of the dominant hand. Subjects removed and replaced the data logger when necessary (i.e., to have a bath or shower). The value of skin temperature assessment in sleep research is that the endogenous skin warming resulting from increased skin blood flow is functionally linked to sleep propensity. From the collected data, the mesor, amplitude, acrophase (time of peak temperature), Rayleight test (an index of interdaily stability), mean waveforms are calculated.);
# Assessments were made at baseline and at the end of the fixed dose and washout periods. Circadian system status was evaluated by continuously monitoring wrist skin temperature (Thermochron iButton DS1921H; Maxim, Dallas) following published procedures (Sarabia et al. 2008).
# Circadian rhythm of skin temperature was evaluable in 12 patients (i.e., those who had recordings that extended from baseline through washout). Circadian system functionality was evaluated by continuously monitoring wrist skin temperature using a temperature sensor (Thermochron iButton DS1921H; Maxim, Dallas, Tex.) (Sarabia et al. 2008). […]
# Briefly, this analysis includes the following parameters: (i) the inter-daily stability (the constancy of 24-hour rhythmic pattern over days, IS); (ii) intra-daily variability (rhythm fragmentation, IV); (iii) average of 10-minute intervals for the 10 hours with the minimum temperature (L10); (iv) average of 10-minute intervals for the 5 hours with the maximum temperature (M5) and the relative amplitude (RA), which was determined by the difference between M5 and L10, divided by the sum of both. […]
# [4] = Stage 1, 10 dosed, unrelated to ENT-01
compound,measurement,setting,value
"CC(C)[C@@H](CC[C@@H](C)[C@H]1CC[C@H]2[C@@H]3[C@H](O)C[C@H]4C[C@@H](NCCCNCCCCN)CC[C@]4(C)[C@H]3CC[C@]12C)OS(=O)(=O)O (single isomer, unassigned) [squalamine (ENT-01), squalamine]",share of AEs confined to the GI tract,[1]; Stage 1,88%
same,patients with diarrhea,"[1]; Stage 1, 4/10",40%
same,patients with nausea,"[1]; Stage 1, 4/10",40%
same,"Abdominal pain, Mild: patients with adverse event","[1]; Stage 1, 10 dosed","2 (20) n, %"
same,"Abdominal pain, Moderate: patients with adverse event","[1]; Stage 1, 10 dosed","3 (30) n, %"
same,"Blood in urine, Moderate: patients with adverse event","[1]; Stage 1, 10 dosed","0 n, %"
same,"Diarrhea, Mild: patients with adverse event","[1]; Stage 1, 10 dosed","1 (10) n, %"
same,"Diarrhea, Moderate: patients with adverse event","[1]; Stage 1, 10 dosed","3 (30) n, %"
same,"Diarrhea, Severe: patients with adverse event","[1]; Stage 1, 10 dosed","0 n, %"
same,"Difficulty falling asleep, Mild: patients with adverse event","[1]; Stage 1, 10 dosed","0 n, %"
same,"Difficulty falling asleep, Moderate: patients with adverse event","[1]; Stage 1, 10 dosed","0 n, %"
same,"Dizziness, Mild: patients with adverse event","[1]; Stage 1, 10 dosed","0 n, %"
same,"Dizziness, Moderate: patients with adverse event","[1]; Stage 1, 10 dosed","0 n, %"
same,"Eye infection, Mild: patients with adverse event","[1]; Stage 1, 10 dosed","0 n, %"
same,"Eye infection, Moderate: patients with adverse event","[1]; Stage 1, 10 dosed","0 n, %"
same,"Flatulence, Mild: patients with adverse event","[1]; Stage 1, 10 dosed","2 (20) n, %"
same,"Flatulence, Moderate: patients with adverse event","[1]; Stage 1, 10 dosed","0 n, %"
same,"Headache, Mild: patients with adverse event","[1]; Stage 1, 10 dosed","1 (10) n, %"
same,"Headache, Moderate: patients with adverse event","[1]; Stage 1, 10 dosed","0 n, %"
same,"Increased urinary frequency, Mild: patients with adverse event","[1]; Stage 1, 10 dosed","0 n, %"
same,"Increased urinary frequency, Moderate: patients with adverse event","[1]; Stage 1, 10 dosed","0 n, %"
same,"Loss of appetite, Moderate: patients with adverse event","[1]; Stage 1, 10 dosed","0 n, %"
same,"Lower GI bleed, Severe: patients with adverse event","[1]; Stage 1, 10 dosed","0 n, %"
same,"Nausea, Mild: patients with adverse event","[1]; Stage 1, 10 dosed","4 (40) n, %"
same,"Nausea, Moderate: patients with adverse event","[1]; Stage 1, 10 dosed","0 n, %"
same,"Skin lesions-rash, Mild: patients with adverse event","[1]; Stage 1, 10 dosed","0 n, %"
same,"Skin lesions-rash, Moderate: patients with adverse event","[1]; Stage 1, 10 dosed","0 n, %"
same,"Urinary retention, Mild: patients with adverse event","[1]; Stage 1, 10 dosed","0 n, %"
same,"Urinary retention, Moderate: patients with adverse event","[1]; Stage 1, 10 dosed","0 n, %"
same,"Urinary tract infection, Mild: patients with adverse event","[1]; Stage 1, 10 dosed","0 n, %"
same,"Urinary tract infection, Moderate: patients with adverse event","[1]; Stage 1, 10 dosed","0 n, %"
same,"Vomiting, Mild: patients with adverse event","[1]; Stage 1, 10 dosed","1 (10) n, %"
same,"Vomiting, Moderate: patients with adverse event","[1]; Stage 1, 10 dosed","0 n, %"
same,"Worsening acid reflux, Mild: patients with adverse event","[1]; Stage 1, 10 dosed","0 n, %"
same,"Worsening acid reflux, Moderate: patients with adverse event","[1]; Stage 1, 10 dosed","0 n, %"
same,"Worsening hemorrhoid, Mild: patients with adverse event","[1]; Stage 1, 10 dosed","0 n, %"
same,"Worsening hemorrhoid, Moderate: patients with adverse event","[1]; Stage 1, 10 dosed","0 n, %"
same,"Blood in urine, Mild: patients with adverse event",[1]; [4],"1 (10) n, %"
same,"Loss of appetite, Mild: patients with adverse event",[1]; [4],"1 (10) n, %"
same,share of AEs confined to the GI tract,[1]; Stage 2,63%
same,"Abdominal pain, Mild: patients with adverse event","[1]; Stage 2, 34 dosed",4 n
same,"Abdominal pain, Moderate: patients with adverse event","[1]; Stage 2, 34 dosed",2 n
same,"Blood in urine, Mild: patients with adverse event","[1]; Stage 2, 34 dosed",0 n
same,"Blood in urine, Moderate: patients with adverse event","[1]; Stage 2, 34 dosed",0 n
same,"Diarrhea, Mild: patients with adverse event","[1]; Stage 2, 34 dosed",12 n
same,"Diarrhea, Moderate: patients with adverse event","[1]; Stage 2, 34 dosed",2 n
same,"Diarrhea, Severe: patients with adverse event","[1]; Stage 2, 34 dosed",1 n
same,"Difficulty falling asleep, Mild: patients with adverse event","[1]; Stage 2, 34 dosed",1 n
same,"Difficulty falling asleep, Moderate: patients with adverse event","[1]; Stage 2, 34 dosed",0 n
same,"Dizziness, Mild: patients with adverse event","[1]; Stage 2, 34 dosed",7 n
same,"Dizziness, Moderate: patients with adverse event","[1]; Stage 2, 34 dosed",1 n
same,"Eye infection, Mild: patients with adverse event","[1]; Stage 2, 34 dosed",1 n
same,"Eye infection, Moderate: patients with adverse event","[1]; Stage 2, 34 dosed",0 n
same,"Flatulence, Mild: patients with adverse event","[1]; Stage 2, 34 dosed",1 n
same,"Flatulence, Moderate: patients with adverse event","[1]; Stage 2, 34 dosed",0 n
same,"Headache, Mild: patients with adverse event","[1]; Stage 2, 34 dosed",3 n
same,"Headache, Moderate: patients with adverse event","[1]; Stage 2, 34 dosed",0 n
same,"Increased urinary frequency, Mild: patients with adverse event","[1]; Stage 2, 34 dosed",2 n
same,"Increased urinary frequency, Moderate: patients with adverse event","[1]; Stage 2, 34 dosed",0 n
same,"Loss of appetite, Mild: patients with adverse event","[1]; Stage 2, 34 dosed",0 n
same,"Loss of appetite, Moderate: patients with adverse event","[1]; Stage 2, 34 dosed",0 n
same,"Nausea, Mild: patients with adverse event","[1]; Stage 2, 34 dosed",18 n
same,"Nausea, Moderate: patients with adverse event","[1]; Stage 2, 34 dosed",1 n
same,"Skin lesions-rash, Mild: patients with adverse event","[1]; Stage 2, 34 dosed",3 n
same,"Skin lesions-rash, Moderate: patients with adverse event","[1]; Stage 2, 34 dosed",0 n
same,"Urinary retention, Mild: patients with adverse event","[1]; Stage 2, 34 dosed",1 n
same,"Urinary retention, Moderate: patients with adverse event","[1]; Stage 2, 34 dosed",0 n
same,"Urinary tract infection, Mild: patients with adverse event","[1]; Stage 2, 34 dosed",1 n
same,"Urinary tract infection, Moderate: patients with adverse event","[1]; Stage 2, 34 dosed",2 n
same,"Vomiting, Mild: patients with adverse event","[1]; Stage 2, 34 dosed",2 n
same,"Vomiting, Moderate: patients with adverse event","[1]; Stage 2, 34 dosed",0 n
same,"Worsening acid reflux, Mild: patients with adverse event","[1]; Stage 2, 34 dosed",4 n
same,"Worsening acid reflux, Moderate: patients with adverse event","[1]; Stage 2, 34 dosed",0 n
same,"Worsening hemorrhoid, Mild: patients with adverse event","[1]; Stage 2, 34 dosed",1 n
same,"Worsening hemorrhoid, Moderate: patients with adverse event","[1]; Stage 2, 34 dosed",0 n
same,"Lower GI bleed, Severe: patients with adverse event","[1]; Stage 2, colonic diverticulosis, polyp, patient on aspirin, Plavix and naproxen, unrelated to ENT-01",1 n
same,absorption from the intestine,[2],low
same,"CSBM/week in the randomized cohort, group later randomized to Placebo (n = 9)","[3]; Fixed dose period (on drug, before randomization), baseline 1.6",3.3 CSBM/week
same,"CSBM/week in the randomized cohort, Treatment (n = 6)",[3]; Fixed dose period,3.2 CSBM/week
same,"CSBM/week in the randomized cohort, Treatment (n = 6)",[3]; Randomized period (4-6 days continued treatment),2.4 CSBM/week
same,"CSBM/week in the randomized cohort, Treatment (n = 6)",[3]; Washout,0.9 CSBM/week
same,"markers of circadian function (IS, RA, CFI, IV) of wrist skin temperature",patients with PD,improved all markers of healthy circadian function
same,"markers of circadian function (IS, RA, CFI, IV) of wrist skin temperature",patients with PD; listed as ENT-01,significant positive impact; also recorded: improved all markers of healthy circadian function
same,circadian parameters during wash-out period,"patients with PD; wash-out versus baseline (IS, CFI)",improvement persisted for several of these circadian parameters
